For six compounds, MIC results are on record in ChEMBL document CHEMBL4825691, “Antimicrobial, modulatory, and antibiofilm activity of tt-farnesol on bacterial and fungal strains of importance to human health” (2021).

Converted amounts (≈) assume the structure as drawn.

What all share (type): functional
Assay [1] deals with Enterococcus durans. Nature of the assay: Antibacterial activity against Enterococcus durans BIO 0114 assessed as inhibition of bacterial growth incubated for 24 hrs by microdilution assay. (Broth dilution looks for growth in wells or tubes with falling amounts of substance.)
Assay [2] deals with Streptococcus sobrinus. Description: Antibacterial activity against Streptococcus sobrinus ATCC 27351 assessed as inhibition of bacterial growth incubated for 24 hrs by microdilution assay.
For assay [3], the system named is Enterococcus faecalis. Nature of the assay: Antibacterial activity against Enterococcus faecalis ATCC 6569 assessed as inhibition of bacterial growth incubated for 24 hrs by microdilution assay.
Assay [4] has as its system Serratia marcescens. Nature of the assay: Antibacterial activity against Serratia marcescens ATCC 13880 assessed as inhibition of bacterial growth incubated for 24 hrs by microdilution assay. The following applies: subsp. marcescens ATCC 13880.
For assay [5], the system named is Streptococcus mutans. Description: Antibacterial activity against Streptococcus mutans ATCC 25175 assessed as inhibition of bacterial growth incubated for 24 hrs by microdilution assay.
Assay [6] deals with Shigella flexneri. Nature of the assay: Antibacterial activity against Shigella flexneri CCCD S006 assessed as inhibition of bacterial growth incubated for 24 hrs by microdilution assay.
Assay [7] deals with Enterococcus faecalis. Nature of the assay: Antibacterial activity against Enterococcus faecalis ATCC 29212 assessed as inhibition of bacterial growth incubated for 24 hrs by microdilution assay.
In assay [8] the test system is Streptococcus pyogenes. Description: Antibacterial activity against Streptococcus pyogenes ATCC 19615 assessed as inhibition of bacterial growth incubated for 24 hrs by microdilution assay.
Assay [9] concerns Salmonella typhimurium. Nature of the assay: Antibacterial activity against Salmonella enterica subsp. enterica serovar Typhimurium ATCC 14028 assessed as inhibition of bacterial growth incubated for 24 hrs by microdilution assay.
In assay [10] the test system is Streptococcus agalactiae. Nature of the assay: Antibacterial activity against Streptococcus agalactiae ATCC 13813 assessed as inhibition of bacterial growth incubated for 24 hrs by microdilution assay.
Assay [11] relates to Escherichia coli. Description: Antibacterial activity against Escherichia coli ATCC 25922 assessed as inhibition of bacterial growth incubated for 24 hrs by microdilution assay.
Assay [12] deals with Proteus mirabilis. Nature of the assay: Antibacterial activity against Proteus mirabilis ATCC 25933 assessed as inhibition of bacterial growth incubated for 24 hrs by microdilution assay.
The subject of assay [13] is Escherichia coli. Nature of the assay: Antibacterial activity against Escherichia coli ETEC 2589093 assessed as inhibition of bacterial growth incubated for 24 hrs by microdilution assay.
Assay [14] deals with Escherichia coli. Description: Antibacterial activity against Escherichia coli EPEC E234969 assessed as inhibition of bacterial growth incubated for 24 hrs by microdilution assay.
Assay [15] deals with Escherichia coli. Nature of the assay: Antibacterial activity against Escherichia coli EIEC E20851 assessed as inhibition of bacterial growth incubated for 24 hrs by microdilution assay.
Assay [16] has as its system Escherichia coli. Nature of the assay: Antibacterial activity against Escherichia coli EAEC I 4913 assessed as inhibition of bacterial growth incubated for 24 hrs by microdilution assay.
The subject of assay [17] is Escherichia coli. Nature of the assay: Antibacterial activity against Escherichia coli EHEC 933 assessed as inhibition of bacterial growth incubated for 24 hrs by microdilution assay.
Assay [18] concerns Escherichia coli. Description: Antibacterial activity against Escherichia coli EOL 931 assessed as inhibition of bacterial growth incubated for 24 hrs by microdilution assay.
In assay [19] the test system is Escherichia coli. Nature of the assay: Antibacterial activity against Escherichia coli STEC 2C1 assessed as inhibition of bacterial growth incubated for 24 hrs by microdilution assay.
In assay [20] the test system is Stenotrophomonas maltophilia. Description: Antibacterial activity against Stenotrophomonas maltophilia EM 0104assessed as inhibition of bacterial growth incubated for 24 hrs by microdilution assay.
The test system of assay [21] is Acinetobacter baumannii. Nature of the assay: Antibacterial activity against Acinetobacter baumannii ATCC 19606 assessed as inhibition of bacterial growth incubated for 24 hrs by microdilution assay. The following applies: ATCC 19606 = CIP 70.34 = JCM 6841.
Assay [22] relates to Staphylococcus epidermidis. Nature of the assay: Antibacterial activity against Staphylococcus epidermidis ATCC 12228 assessed as inhibition of bacterial growth incubated for 24 hrs by microdilution assay.
The test system of assay [23] is Staphylococcus aureus. Nature of the assay: Antibacterial activity against Staphylococcus aureus ATCC 29213 assessed as inhibition of bacterial growth incubated for 24 hrs by microdilution assay.
Assay [24] concerns Klebsiella pneumoniae. Description: Antibacterial activity against Klebsiella pneumoniae ATCC 1705 assessed as inhibition of bacterial growth incubated for 24 hrs by microdilution assay.
Assay [25] concerns Klebsiella pneumoniae. Description: Antibacterial activity against Klebsiella pneumoniae ATCC 700603 assessed as inhibition of bacterial growth incubated for 24 hrs by microdilution assay.

In the case of `CC1(C)S[C@@H]2[C@H](NC(=O)[C@H](N)c3ccccc3)C(=O)N2[C@H]1C(=O)O` [AMPICILLIN], the MIC (in general, the lowest concentration that inhibits growth of the organism) amounted to 4 µg/mL (≈ 11.4 µM) in assay [1]; 0.125 µg/mL (≈ 0.358 µM) in assay [2]; 4 µg/mL (≈ 11.4 µM) in assay [3]; 4 µg/mL (≈ 11.4 µM) in assay [4]; 0.5 µg/mL (≈ 1.43 µM) in assay [5]; 4 µg/mL (≈ 11.4 µM) in [6]. For the same compound, the MIC in assay [7] was 4 µg/mL (≈ 11.4 µM); in assay [8] it was 0.0625 µg/mL (≈ 0.179 µM); in assay [9], 4 µg/mL (≈ 11.4 µM); in [10], 0.25 µg/mL (≈ 0.715 µM); in assay [11], 4 µg/mL (≈ 11.4 µM).
Turning to `O=C(O)c1cn(C2CC2)c2cc(N3CCNCC3)c(F)cc2c1=O` [CIPROFLOXACIN], in [12], the MIC was 0.25 µg/mL (≈ 0.754 µM).
Turning to `C[C@@H](O)[C@H]1C(=O)N2C(C(=O)O)=C(S[C@@H]3CN[C@H](C(=O)N(C)C)C3)[C@H](C)[C@H]12` [MEROPENEM], the minimal inhibitory concentration (MIC) in assay [13], in assay [14], in [15], in assay [16], in [17] and in assay [18] was 0.625 µg/mL (≈ 1.63 µM) each time. The MIC in assay [19] was found to be 0.625 µg/mL (≈ 1.63 µM).
In the case of `CN(C)c1ccc(O)c2c1C[C@H]1C[C@H]3[C@H](N(C)C)C(O)=C(C(N)=O)C(=O)[C@@]3(O)C(O)=C1C2=O` [MINOCYCLINE], the MIC in [20] and in assay [21] was 2 µg/mL (≈ 4.37 µM) each time.
Consider `Cc1onc(-c2ccccc2)c1C(=O)N[C@@H]1C(=O)N2[C@@H]1SC(C)(C)[C@@H]2C(=O)O` [OXACILLIN], for which the minimal inhibitory concentration (MIC) in assay [22] and in assay [23] was 0.25 µg/mL (≈ 0.623 µM) in each case.
Regarding COLISTIN, the MIC in assay [24] and in assay [25] was 1 µg/mL throughout.
